Assay results taken from publication PMC7176092, “Development of the first in vivo GPR17 ligand through an iterative drug discovery pipeline: A novel disease-modifying strategy for multiple sclerosis” (PLoS ONE, 2020).
Where two headings read alike, the source gives them in different places.

Key:
[1] = molecular target: T1, CCR9 (Homo sapiens, UniProt P51686); assay: Cellular functional assay CCR9
T1 sequence (P51686 1-369): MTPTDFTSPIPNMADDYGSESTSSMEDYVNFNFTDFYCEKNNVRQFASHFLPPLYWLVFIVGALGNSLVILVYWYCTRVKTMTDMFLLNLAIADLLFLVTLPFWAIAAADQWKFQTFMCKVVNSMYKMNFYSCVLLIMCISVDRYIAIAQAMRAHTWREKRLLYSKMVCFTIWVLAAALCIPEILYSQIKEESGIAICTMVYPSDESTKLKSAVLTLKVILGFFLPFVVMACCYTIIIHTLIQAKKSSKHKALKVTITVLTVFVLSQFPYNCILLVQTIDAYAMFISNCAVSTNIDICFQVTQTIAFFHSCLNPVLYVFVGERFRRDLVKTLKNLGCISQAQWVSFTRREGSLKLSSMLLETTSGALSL

[2] = test system: 40 human receptors; assay: Selectivity profile on class-A GPCRs (Eurofins Cerep); conditions: 0.1 μM; binding and cellular assays
Description: A subset of GPCRs with a relevant role in demyelination/remyelination was also included in this analysis.

[3] = molecular target: T2, ADR1A (Homo sapiens, UniProt P35348); assay: Binding assay ADR1A; conditions: 100 nM
T2 construct: Eurofins Cerep (external service)
T2 sequence (P35348 1-466): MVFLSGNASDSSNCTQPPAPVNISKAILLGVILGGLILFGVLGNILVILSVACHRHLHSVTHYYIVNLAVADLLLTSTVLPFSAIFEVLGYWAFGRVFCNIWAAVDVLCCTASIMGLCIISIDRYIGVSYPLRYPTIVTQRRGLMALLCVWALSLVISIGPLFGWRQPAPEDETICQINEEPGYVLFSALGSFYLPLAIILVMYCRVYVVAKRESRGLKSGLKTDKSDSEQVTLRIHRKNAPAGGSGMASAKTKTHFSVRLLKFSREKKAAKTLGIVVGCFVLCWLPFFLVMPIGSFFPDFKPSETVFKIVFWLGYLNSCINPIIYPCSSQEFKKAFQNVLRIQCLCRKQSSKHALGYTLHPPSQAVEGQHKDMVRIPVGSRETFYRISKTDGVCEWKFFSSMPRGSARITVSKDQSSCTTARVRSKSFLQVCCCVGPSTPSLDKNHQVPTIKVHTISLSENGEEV

[4] = molecular target: T3, AT1 (Homo sapiens, UniProt P30556); assay: Binding assay AT1; conditions: 100 nM
T3 construct: Eurofins Cerep (external service)
T3 sequence (P30556 1-359): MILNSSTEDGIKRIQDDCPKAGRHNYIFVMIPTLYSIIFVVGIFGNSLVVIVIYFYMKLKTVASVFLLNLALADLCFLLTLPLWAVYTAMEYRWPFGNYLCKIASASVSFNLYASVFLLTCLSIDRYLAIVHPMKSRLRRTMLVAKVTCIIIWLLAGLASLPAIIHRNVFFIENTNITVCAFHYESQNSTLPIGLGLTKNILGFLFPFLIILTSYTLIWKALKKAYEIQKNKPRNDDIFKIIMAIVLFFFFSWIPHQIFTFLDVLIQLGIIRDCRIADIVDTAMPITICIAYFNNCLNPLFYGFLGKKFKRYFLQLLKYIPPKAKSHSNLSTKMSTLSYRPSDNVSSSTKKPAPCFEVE

[5] = molecular target: T4, CysLT1 (Homo sapiens, UniProt Q9Y271); assay: Binding assay CysLT1; conditions: 100 nM
T4 construct: Eurofins Cerep (external service)
T4 sequence (Q9Y271 1-337): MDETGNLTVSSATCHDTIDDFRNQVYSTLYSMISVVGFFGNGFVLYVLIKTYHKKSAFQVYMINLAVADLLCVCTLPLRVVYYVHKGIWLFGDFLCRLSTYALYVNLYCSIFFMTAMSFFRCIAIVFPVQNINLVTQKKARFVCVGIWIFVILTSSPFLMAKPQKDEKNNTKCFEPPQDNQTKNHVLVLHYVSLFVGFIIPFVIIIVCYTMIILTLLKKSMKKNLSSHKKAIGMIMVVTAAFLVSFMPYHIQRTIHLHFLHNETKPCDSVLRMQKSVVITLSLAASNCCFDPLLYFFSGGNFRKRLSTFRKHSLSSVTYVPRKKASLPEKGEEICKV

[6] = molecular target: T5, CX3CR1 (Homo sapiens, UniProt P49238); assay: Cellular functional assay CX3CR1
T5 sequence (P49238 1-355): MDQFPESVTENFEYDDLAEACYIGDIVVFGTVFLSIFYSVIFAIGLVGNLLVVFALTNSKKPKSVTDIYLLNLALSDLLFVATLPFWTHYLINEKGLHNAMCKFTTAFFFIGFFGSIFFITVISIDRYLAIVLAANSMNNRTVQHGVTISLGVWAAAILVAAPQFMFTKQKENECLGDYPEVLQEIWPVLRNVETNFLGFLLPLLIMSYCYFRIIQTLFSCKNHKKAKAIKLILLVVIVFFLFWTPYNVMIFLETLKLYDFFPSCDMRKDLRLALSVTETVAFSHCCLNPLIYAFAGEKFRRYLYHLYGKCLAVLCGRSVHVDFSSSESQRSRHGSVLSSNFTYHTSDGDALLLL

[7] = molecular target: T6, M5 (Homo sapiens, UniProt P08912); assay: Binding assay M5; conditions: 100 nM
T6 construct: Eurofins Cerep (external service)
T6 sequence (P08912 1-532): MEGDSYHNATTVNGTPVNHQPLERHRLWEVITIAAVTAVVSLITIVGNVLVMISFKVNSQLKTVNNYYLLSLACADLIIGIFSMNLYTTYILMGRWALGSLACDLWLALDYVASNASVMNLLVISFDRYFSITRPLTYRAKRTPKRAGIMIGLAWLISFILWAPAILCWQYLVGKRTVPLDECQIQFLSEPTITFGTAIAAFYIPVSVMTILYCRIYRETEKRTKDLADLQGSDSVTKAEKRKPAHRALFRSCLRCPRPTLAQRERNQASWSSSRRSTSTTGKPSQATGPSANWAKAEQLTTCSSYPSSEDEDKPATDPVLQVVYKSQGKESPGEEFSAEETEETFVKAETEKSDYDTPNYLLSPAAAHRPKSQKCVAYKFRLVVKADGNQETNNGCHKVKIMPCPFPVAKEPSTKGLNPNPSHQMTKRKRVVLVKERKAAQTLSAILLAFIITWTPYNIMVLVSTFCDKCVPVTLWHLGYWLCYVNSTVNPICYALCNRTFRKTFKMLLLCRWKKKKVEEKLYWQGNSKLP

[8] = antagonist effect, 100 nM, single replicates 1st and 2nd, 0.1 µM
[9] = read-out: % Inhibition of control agonist response
[10] = read-out: Agonist Response (% of Control), Mean, antagonist effect, 100 nM, mean of 2
[11] = read-out: Agonist Response (% of Control), antagonist effect, 100 nM, single replicates 1st and 2nd
[12] = mean of 2, read-out: % Of control specific binding, Mean
[13] = single replicates 1 and 2, 0.1 µM
[14] = single replicates 1 and 2, read-out: % Of control specific binding
[15] = read-out: % Inhibition of control specific binding

Agonist Response (% of Control) [1, 8]: 95.2% | inhibition at 0.1 µM [1, 9]: 0.1% | activity at 0.1 µM [1, 10]: 102% | activity at 0.1 µM [1, 11]: 108% | Pharmacological activity on the tested GPCRs [2]: no significant pharmacological activity | remaining activity at 0.1 µM [3, 12]: 112% | % Of control specific binding [3, 13]: 108.1% | remaining activity at 0.1 µM [3, 14]: 117% | remaining activity at 0.1 µM [4, 12]: 110% | inhibition at 0.1 µM [4, 15]: -10% | % Of control specific binding [4, 13]: 108.6% | remaining activity at 0.1 µM [4, 14]: 112% | remaining activity at 0.1 µM [5, 12]: 97.6% | inhibition at 0.1 µM [5, 15]: 2% | % Of control specific binding [5, 13]: 105.4% | remaining activity at 0.1 µM [5, 14]: 89.7% | Agonist Response (% of Control) [6, 8]: 105.4% | inhibition at 0.1 µM [6, 9]: 0.2% | activity at 0.1 µM [6, 10]: 107% | activity at 0.1 µM [6, 11]: 110% | remaining activity at 0.1 µM [7, 12]: 97.4% | inhibition at 0.1 µM [7, 15]: 3% | % Of control specific binding [7, 13]: 105.1% | remaining activity at 0.1 µM [7, 14]: 89.7%
SMILES: Cc1ccc(-c2nnc(SCC(=O)Nc3nccs3)[nH]2)cc1 [Compound 9]
